From ChEMBL document CHEMBL1201862, “PubChem BioAssay data set” (2004)
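Each compound was tested at five concentrations against cells in 96-well plates for 48 hours. GI50 is the concentration that inhibits growth by half.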 Calls of active or inactive are those of the source. Rule as the data show it: active = GI50 up to about 1.1 µM and inactive = higher.

Assays:
Test in all cases: NCI-60 cell line screen, 48 h
[1] = test system: HOP-62
[2] = test system: HCT-15
[3] = test system: SF-295
[4] = test system: SK-OV-3
[5] = test system: RXF 393
[6] = test system: LOX IMVI
[7] = test system: Malme-3M
[8] = test system: SK-MEL-28
[9] = test system: SNB-75
[10] = test system: KM12
[11] = test system: SK-MEL-2
[12] = test system: UACC-62
[13] = test system: SF-268
[14] = test system: EKVX
[15] = test system: NCI-H226
[16] = test system: SK-MEL-5
[17] = test system: M14
[18] = test system: 786-0
[19] = test system: TK-10
[20] = test system: ACHN

| Compound | GI50 [1] | GI50 [2] | GI50 [3] | GI50 [4] | GI50 [5] | GI50 [6] | GI50 [7] | GI50 [8] | GI50 [9] | GI50 [10] | GI50 [11] | GI50 [12] | GI50 [13] | GI50 [14] | GI50 [15] | GI50 [16] | GI50 [17] | GI50 [18] | GI50 [19] | GI50 [20] |
| --- | --- | --- | --- | --- | --- | --- | --- | --- | --- | --- | --- | --- | --- | --- | --- | --- | --- | --- | --- | --- |
| O=C1c2ccccc2C(O)(C(=O)O)C1(O)CC=C(Cl)Cl (stereo not given) | > 125 µM (inactive) | > 125 µM | > 125 µM (inactive) | > 125 µM (inactive) | > 125 µM (inactive) | > 125 µM (inactive) | > 125 µM (inactive) | > 125 µM (inactive) | > 125 µM (inactive) | > 125 µM (inactive) | > 125 µM (inactive) | > 125 µM (inactive) | > 125 µM (inactive) | > 125 µM (inactive) | > 125 µM (inactive) | > 125 µM (inactive) | – | – | – | – |
| O=C(O)C(Cc1cccs1)NC(=O)C(F)(F)F (stereo not given) | > 100 µM (inactive) | > 100 µM | > 100 µM (inactive) | > 100 µM (inactive) | > 100 µM (inactive) | > 100 µM (inactive) | > 100 µM (inactive) | > 100 µM (inactive) | > 100 µM (inactive) | > 100 µM (inactive) | > 100 µM (inactive) | > 100 µM (inactive) | > 100 µM (inactive) | > 100 µM (inactive) | > 100 µM (inactive) | > 100 µM (inactive) | – | – | – | – |
| N#Cc1c(-c2ccc([N+](=O)[O-])cc2)c(C#N)c(=O)n(NS(=O)(=O)c2ccccc2)c1O | > 100 µM (inactive) | > 100 µM | > 100 µM (inactive) | > 100 µM (inactive) | > 100 µM (inactive) | > 100 µM (inactive) | > 100 µM (inactive) | > 100 µM (inactive) | – | – | > 100 µM (inactive) | > 100 µM (inactive) | – | > 100 µM (inactive) | > 100 µM (inactive) | > 100 µM (inactive) | > 100 µM (inactive) | > 100 µM (inactive) | > 100 µM (inactive) | > 100 µM (inactive) |
| CCCNC(C#N)c1ccc(C(C#N)NCCC)cc1 (stereo not given) | – | > 100 µM | > 100 µM (inactive) | > 100 µM (inactive) | > 100 µM (inactive) | > 100 µM (inactive) | > 100 µM (inactive) | > 100 µM (inactive) | – | > 100 µM (inactive) | > 100 µM (inactive) | > 100 µM (inactive) | > 100 µM (inactive) | > 100 µM (inactive) | > 100 µM (inactive) | > 100 µM (inactive) | > 100 µM (inactive) | > 100 µM (inactive) | > 100 µM (inactive) | > 100 µM (inactive) |
| Cc1cc(N(CCC#N)CCC#N)ccc1/C=C(\NC(=O)/C=C/c1ccccc1)C(=O)Nc1ccccc1Cl | – | > 100 µM | 92 µM (inactive) | – | > 100 µM (inactive) | > 100 µM (inactive) | > 100 µM (inactive) | > 100 µM (inactive) | – | > 100 µM (inactive) | > 100 µM (inactive) | > 100 µM (inactive) | > 100 µM (inactive) | > 100 µM (inactive) | > 100 µM (inactive) | > 100 µM (inactive) | > 100 µM (inactive) | > 100 µM (inactive) | – | > 100 µM (inactive) |
| Oc1ccc(C(=C(Br)c2ccccc2)c2ccc(O)cc2)cc1 | 10.4 µM (inactive) | 3.72 µM | 6.14 µM (inactive) | 5.01 µM (inactive) | 12.1 µM (inactive) | 4.08 µM (inactive) | 5.52 µM (inactive) | 10.4 µM (inactive) | – | 3.61 µM (inactive) | 5.74 µM (inactive) | 8.47 µM (inactive) | 4.9 µM (inactive) | 11.5 µM (inactive) | 15.8 µM (inactive) | 3.47 µM (inactive) | 4.15 µM (inactive) | 9.77 µM (inactive) | 13.8 µM (inactive) | 9.16 µM (inactive) |
| COC(=O)C1=C(C)N2CCOC2CC1c1ccccc1 (stereo not given) | > 100 µM (inactive) | – | > 100 µM (inactive) | – | 48.6 µM (inactive) | – | – | 99.1 µM (inactive) | > 100 µM (inactive) | > 100 µM (inactive) | > 100 µM (inactive) | > 100 µM (inactive) | > 100 µM (inactive) | > 100 µM (inactive) | > 100 µM (inactive) | > 100 µM (inactive) | > 100 µM (inactive) | – | > 100 µM (inactive) | > 100 µM (inactive) |
| Oc1cn(-c2ccc(Cl)cc2)nc1-c1nnc(-c2ccccc2)o1 | 0.132 µM (active) | 0.262 µM | 0.102 µM (active) | 12.9 µM (inactive) | 1.14 µM (inactive) | – | 8.34 µM (inactive) | 15.2 µM (inactive) | > 22.6 µM (inactive) | 0.0847 µM (active) | 16.9 µM (inactive) | 2.09 µM (inactive) | 0.34 µM (active) | 1.16 µM (inactive) | 0.931 µM (active) | 0.268 µM (active) | – | – | 0.17 µM (active) | – |
| CCOC(=O)c1sc2nc(SC)nc3c2c1NC(=O)CN3c1cccc(F)c1 | 14.5 µM (inactive) | – | 16.3 µM (inactive) | 20 µM (inactive) | 16.7 µM (inactive) | 17.8 µM (inactive) | 30.3 µM (inactive) | 0.138 µM (active) | – | 80.5 µM (inactive) | 27.4 µM (inactive) | 30.5 µM (inactive) | 12.4 µM (inactive) | 46 µM (inactive) | 6.93 µM (inactive) | 0.855 µM (active) | 20.5 µM (inactive) | – | 28.4 µM (inactive) | 13 µM (inactive) |
| CCn1c(=O)c(C(=O)O)c(Cl)c2cc3c(cc21)OCO3 | > 100 µM (inactive) | > 100 µM | > 100 µM (inactive) | > 100 µM (inactive) | > 100 µM (inactive) | > 100 µM (inactive) | > 100 µM (inactive) | > 100 µM (inactive) | > 100 µM (inactive) | > 100 µM (inactive) | > 100 µM (inactive) | > 100 µM (inactive) | > 100 µM (inactive) | > 100 µM (inactive) | > 100 µM (inactive) | > 100 µM (inactive) | – | – | – | – |
| CC1CC(C)(O)C2C3(C)CCCC2(COC3=O)C12CCC1(CCOC1=O)O2 (stereo not given) | > 250 µM (inactive) | > 250 µM | > 250 µM (inactive) | > 250 µM (inactive) | > 250 µM (inactive) | > 250 µM (inactive) | > 250 µM (inactive) | > 250 µM (inactive) | > 250 µM (inactive) | > 250 µM (inactive) | > 250 µM (inactive) | > 250 µM (inactive) | > 250 µM (inactive) | > 250 µM (inactive) | > 250 µM (inactive) | > 250 µM (inactive) | – | – | – | – |
| NCC(=O)N[C@H]1c2ccsc2/C(=N/O)[C@H]1O | > 100 µM (inactive) | > 100 µM | > 100 µM (inactive) | > 100 µM (inactive) | > 100 µM (inactive) | > 100 µM (inactive) | > 100 µM (inactive) | > 100 µM (inactive) | – | – | > 100 µM (inactive) | > 100 µM (inactive) | – | > 100 µM (inactive) | > 100 µM (inactive) | > 100 µM (inactive) | > 100 µM (inactive) | – | > 100 µM (inactive) | – |
| CCOC(=O)c1csc(NC(=O)C(C)N2CCCCC2)n1 (stereo not given) | > 100 µM (inactive) | > 100 µM | > 100 µM (inactive) | > 100 µM (inactive) | > 100 µM (inactive) | > 100 µM (inactive) | > 100 µM (inactive) | > 100 µM (inactive) | > 100 µM (inactive) | > 100 µM (inactive) | > 100 µM (inactive) | > 100 µM (inactive) | – | > 100 µM (inactive) | – | > 100 µM (inactive) | > 100 µM (inactive) | – | > 100 µM (inactive) | > 100 µM (inactive) |
| O=c1c2ccccc2ncn1COCc1ccccc1 | – | > 100 µM | > 100 µM (inactive) | > 100 µM (inactive) | > 100 µM (inactive) | > 100 µM (inactive) | – | > 100 µM (inactive) | – | > 100 µM (inactive) | > 100 µM (inactive) | > 100 µM (inactive) | – | > 100 µM (inactive) | > 100 µM (inactive) | > 100 µM (inactive) | > 100 µM (inactive) | > 100 µM (inactive) | > 100 µM (inactive) | > 100 µM (inactive) |
| C/C=C(\C)C(=O)OC1C2C(C)=CC(=O)C(O)C2(C)C2C3(O)OCC24C1OC(=O)C(OC(C)=O)C4C(C)C3O (stereo not given) | 0.0375 µM (active) | 0.0741 µM | 0.0402 µM (active) | 0.144 µM (active) | 0.0375 µM (active) | 0.0375 µM (active) | – | 0.0375 µM (active) | 0.0389 µM (active) | 0.0375 µM (active) | 0.0377 µM (active) | 0.0375 µM (active) | 0.0444 µM (active) | 0.046 µM (active) | 0.0375 µM (active) | – | – | – | – | – |
| CC1(C)N=C(N)N=C(N)N1c1ccc(CCc2ccccc2)cc1 | – | 37.9 µM | 2.17 µM (inactive) | 48.4 µM (inactive) | > 20.9 µM (inactive) | 0.675 µM (active) | 2.2 µM (inactive) | 6.01 µM (inactive) | 28.5 µM (inactive) | 1.42 µM (inactive) | 8.85 µM (inactive) | 1.02 µM (active) | 0.618 µM (active) | 0.622 µM (active) | 14.2 µM (inactive) | 0.741 µM (active) | – | – | – | – |
| COc1ccc(N(CC(=O)O)S(=O)(=O)c2ccccc2)cc1 | – | > 100 µM | > 100 µM (inactive) | > 100 µM (inactive) | > 100 µM (inactive) | > 100 µM (inactive) | > 100 µM (inactive) | – | – | > 100 µM (inactive) | > 100 µM (inactive) | > 100 µM (inactive) | – | > 100 µM (inactive) | > 100 µM (inactive) | > 100 µM (inactive) | > 100 µM (inactive) | > 100 µM (inactive) | > 100 µM (inactive) | > 100 µM (inactive) |
